Reference: US10004701B2, “Methods and compositions for treating infection” (UNIVERSITY OF ROCHESTER, priority 2012, dated 2018)

Assays:
Test in all cases: AK assay 384-well format, Prestwick library screening
E. faecium = type: cell-based, Enterococcus faecium; settings: 50 μM final drug concentration; for AK-based Prestwick Library Screening Results, E. faecium (increase in extracellular AK activity): cutoff for positive-scoring molecules 3-fold increase
[1] = tested on: S. aureus strain USA300-0114; type: cell-based, Staphylococcus aureus; settings: 50 μM final drug concentration; for AK-based Prestwick Library Screening Results, S. aureus (increase in extracellular AK activity): cutoff for positive-scoring molecules 3-fold increase
K. pneumoniae = type: cell-based, Klebsiella pneumoniae; settings: 50 μM final drug concentration; for AK-based Prestwick Library Screening Results, K. pneumoniae (increase in extracellular AK activity): cutoff for positive-scoring molecules 3-fold increase
[2] = tested on: A. baumannii strain 98-37-09; type: cell-based, Acinetobacter baumannii; settings: 50 μM final drug concentration; for AK-based Prestwick Library Screening Results, A. baumannii (increase in extracellular AK activity): cutoff for positive-scoring molecules 3-fold increase
P. aeruginosa = type: cell-based, Pseudomonas aeruginosa; settings: 50 μM final drug concentration; for AK-based Prestwick Library Screening Results, P. aeruginosa (increase in extracellular AK activity): cutoff for positive-scoring molecules 3-fold increase
E. cloacae = type: cell-based, Enterobacter cloacae; settings: 50 μM final drug concentration; for AK-based Prestwick Library Screening Results, E. cloacae (increase in extracellular AK activity): cutoff for positive-scoring molecules 3-fold increase
E. coli = type: cell-based, Escherichia coli; settings: 50 μM final drug concentration; for AK-based Prestwick Library Screening Results, E. coli (increase in extracellular AK activity): cutoff for positive-scoring molecules 3-fold increase
[3] = planktonic, cutoff for positive 3-fold increase

Iobenguane sulfate
AK-based Prestwick Library Screening Results, E. faecium (increase in extracellular AK activity) (E. faecium; planktonic E. faecium): 0.9 | AK-based Prestwick Library Screening Results, S. aureus (increase in extracellular AK activity) ([1]; planktonic S. aureus): 0.5 | AK-based Prestwick Library Screening Results, K. pneumoniae (increase in extracellular AK activity) (K. pneumoniae; planktonic K. pneumoniae): 0.5 | AK-based Prestwick Library Screening Results, A. baumannii (increase in extracellular AK activity) ([2]; planktonic A. baumannii): 0.5 | AK-based Prestwick Library Screening Results, P. aeruginosa (increase in extracellular AK activity) (P. aeruginosa; planktonic P. aeruginosa): 0.4 | AK-based Prestwick Library Screening Results, E. cloacae (increase in extracellular AK activity) (E. cloacae; planktonic E. cloacae): 0.6 | AK-based Prestwick Library Screening Results, E. coli (increase in extracellular AK activity) (E. coli; planktonic E. coli): 0.5

Iproniazide phosphate
AK-based Prestwick Library Screening Results, E. faecium (increase in extracellular AK activity) (E. faecium; 384-well format): 1.0 | AK-based Prestwick Library Screening Results, S. aureus (increase in extracellular AK activity) ([1]; 384-well format): 1.0 | AK-based Prestwick Library Screening Results, K. pneumoniae (increase in extracellular AK activity) (K. pneumoniae; 384-well format): 0.7 | AK-based Prestwick Library Screening Results, A. baumannii (increase in extracellular AK activity) ([2]; 384-well format): 0.7 | AK-based Prestwick Library Screening Results, P. aeruginosa (increase in extracellular AK activity) (P. aeruginosa; 384-well format): 0.7 | AK-based Prestwick Library Screening Results, E. cloacae (increase in extracellular AK activity) (E. cloacae; 384-well format): 0.8 | AK-based Prestwick Library Screening Results, E. coli (increase in extracellular AK activity) (E. coli; 384-well format): 0.8

Isoetharine mesylate salt
AK-based Prestwick Library Screening Results, E. faecium (fold increase in extracellular AK activity) (E. faecium; planktonic, […]): 0.9 | AK-based Prestwick Library Screening Results, S. aureus (fold increase in extracellular AK activity) ([1]; planktonic, […]): 0.6 | AK-based Prestwick Library Screening Results, K. pneumoniae (fold increase in extracellular AK activity) (K. pneumoniae; planktonic, […]): 1.4 | AK-based Prestwick Library Screening Results, A. baumannii (fold increase in extracellular AK activity) ([2]; planktonic, […]): 0.8 | AK-based Prestwick Library Screening Results, P. aeruginosa (fold increase in extracellular AK activity) (P. aeruginosa; planktonic, […]): 0.6 | AK-based Prestwick Library Screening Results, E. cloacae (fold increase in extracellular AK activity) (E. cloacae; planktonic, […]): 0.9 | AK-based Prestwick Library Screening Results, E. coli (fold increase in extracellular AK activity) (E. coli; planktonic, […]): 0.9

Ketanserin tartrate hydrate
AK-based Prestwick Library Screening Results, E. faecium (fold increase in extracellular AK activity) (E. faecium; [3]): 1.0 | AK-based Prestwick Library Screening Results, S. aureus (fold increase in extracellular AK activity) [1, 3]: 1.0 | AK-based Prestwick Library Screening Results, K. pneumoniae (fold increase in extracellular AK activity) (K. pneumoniae; [3]): 1.0 | AK-based Prestwick Library Screening Results, A. baumannii (fold increase in extracellular AK activity) [2, 3]: 1.2 | AK-based Prestwick Library Screening Results, P. aeruginosa (fold increase in extracellular AK activity) (P. aeruginosa; [3]): 1.0 | AK-based Prestwick Library Screening Results, E. cloacae (fold increase in extracellular AK activity) (E. cloacae; [3]): 1.4 | AK-based Prestwick Library Screening Results, E. coli (fold increase in extracellular AK activity) (E. coli; [3]): 1.3

Lycorine hydrochloride
AK-based Prestwick Library Screening Results, E. faecium (fold increase in extracellular AK activity) (E. faecium; planktonic, […]): 1.0 | AK-based Prestwick Library Screening Results, S. aureus (fold increase in extracellular AK activity) ([1]; planktonic, […]): 1.4 | AK-based Prestwick Library Screening Results, K. pneumoniae (fold increase in extracellular AK activity) (K. pneumoniae; planktonic, […]): 0.8 | AK-based Prestwick Library Screening Results, A. baumannii (fold increase in extracellular AK activity) ([2]; planktonic, […]): 1.0 | AK-based Prestwick Library Screening Results, P. aeruginosa (fold increase in extracellular AK activity) (P. aeruginosa; planktonic, […]): 1.1 | AK-based Prestwick Library Screening Results, E. cloacae (fold increase in extracellular AK activity) (E. cloacae; planktonic, […]): 1.5 | AK-based Prestwick Library Screening Results, E. coli (fold increase in extracellular AK activity) (E. coli; planktonic, […]): 1.0

Mephentermine hemisulfate
AK-based Prestwick Library Screening Results, E. faecium (fold increase in extracellular AK activity) (E. faecium; planktonic, […]): 0.8 | AK-based Prestwick Library Screening Results, S. aureus (fold increase in extracellular AK activity) ([1]; planktonic, […]): 0.4 | AK-based Prestwick Library Screening Results, K. pneumoniae (fold increase in extracellular AK activity) (K. pneumoniae; planktonic, […]): 0.5 | AK-based Prestwick Library Screening Results, A. baumannii (fold increase in extracellular AK activity) ([2]; planktonic, […]): 0.4 | AK-based Prestwick Library Screening Results, P. aeruginosa (fold increase in extracellular AK activity) (P. aeruginosa; planktonic, […]): 0.4 | AK-based Prestwick Library Screening Results, E. cloacae (fold increase in extracellular AK activity) (E. cloacae; planktonic, […]): 0.4 | AK-based Prestwick Library Screening Results, E. coli (fold increase in extracellular AK activity) (E. coli; planktonic, […]): 0.5

Pizotifen malate
AK-based Prestwick library screening result, E. faecium (fold increase in extracellular AK activity) (E. faecium; planktonic E. faecium, positive cutoff 3-fold increase): 1.0 | AK-based Prestwick library screening result, S. aureus (fold increase in extracellular AK activity) ([1]; planktonic S. aureus, positive cutoff 3-fold increase): 0.7 | AK-based Prestwick library screening result, K. pneumoniae (fold increase in extracellular AK activity) (K. pneumoniae; planktonic K. pneumoniae, positive cutoff 3-fold increase): 0.7 | AK-based Prestwick library screening result, A. baumannii (fold increase in extracellular AK activity) ([2]; planktonic A. baumannii, positive cutoff 3-fold increase): 0.8 | AK-based Prestwick library screening result, P. aeruginosa (fold increase in extracellular AK activity) (P. aeruginosa; planktonic P. aeruginosa, positive cutoff 3-fold increase): 0.8 | AK-based Prestwick library screening result, E. cloacae (fold increase in extracellular AK activity) (E. cloacae; planktonic E. cloacae, positive cutoff 3-fold increase): 1.3 | AK-based Prestwick library screening result, E. coli (fold increase in extracellular AK activity) (E. coli; planktonic E. coli, positive cutoff 3-fold increase): 1.0

Pridinol methanesulfonate salt
AK-based Prestwick Library Screening Results, E. faecium (fold increase in extracellular AK activity) (E. faecium; […]): 1.1 | AK-based Prestwick Library Screening Results, S. aureus (fold increase in extracellular AK activity) ([1]; […]): 1.2 | AK-based Prestwick Library Screening Results, K. pneumoniae (fold increase in extracellular AK activity) (K. pneumoniae; […]): 0.9 | AK-based Prestwick Library Screening Results, A. baumannii (fold increase in extracellular AK activity) ([2]; […]): 1.1 | AK-based Prestwick Library Screening Results, P. aeruginosa (fold increase in extracellular AK activity) (P. aeruginosa; […]): 1.1 | AK-based Prestwick Library Screening Results, E. cloacae (fold increase in extracellular AK activity) (E. cloacae; […]): 1.6 | AK-based Prestwick Library Screening Results, E. coli (fold increase in extracellular AK activity) (E. coli; […]): 1.1
